According to article PMC9134315, “Systemic Administration of a Brain Permeable Cdk5 Inhibitor Alters Neurobehavior” (Frontiers in Pharmacology, 2022):
Read-outs that look alike come from different tables or passages of the source.

Assay: Pharmacokinetic profile in mice after I.V. injection (LC-MS/MS of plasma, brain, liver, kidney)
Assay type: in vivo, mouse
Conditions: for AUC(0-t): read-out: AUC24h; for concentration at 24 h: read-out: Clast; for k el: read-out: Ke (converted)
Protocol: The wild-type group housed male C57BL/6 mice 10–12 weeks of age were used for all in vivo, ex vivo, and behavioral studies. This age range was selected to be consistent with previous studies of conditional Cdk5 knockout mice ([Plattner et al., 2015]). 25–106 was administered in a 20-fold dose range intravenously (I.V.) at 10, 50, 100, and 200 mg/kg for pharmacokinetic studies. This delivery mode was used as I.V. injections to avoid first-pass drug metabolism observed using other injection methods ([Pond and Tozer, 1984]). […] All animal experiments were performed under approved protocols by the University of Alabama at Birmingham (UAB) Institutional Animal Care and Use Committees and in accordance with the guidelines of the Animal Welfare Act and the Guide for the Care and Use of Laboratory Animals.
A quantitative determination of 25–106 in mouse plasma and tissue homogenate was accomplished by the use of protein precipitation and high-performance liquid chromatography with tandem mass spectrometry detection (LC-MS/MS). 5-(N,N-hexamethylene) amiloride (HMA) was used as the internal standard (IS). 25–106 and IS were typically extracted from 50 µL of mouse plasma or tissue homogenate using protein precipitation with methanol. The extracts were analyzed by reverse-phase chromatography using an ACE Excel 3 C18-PFP column under isocratic conditions at a flow rate of 500 μL/min. The column temperature was maintained at 40°C. The mobile phase A consisted of 0.1% formic acid in water, and the mobile phase B was acetonitrile. A triple–quadrupole mass spectrometer (AB Sciex 5,000) equipped with TurboV IonSpray operating in positive-ion mode was used. Column effluents were analyzed by multiple reaction monitoring (MRM). The precursor/product transitions are 346.1 to 137.1 m/z for 25–106 and 312.37 to 129.5 m/z for IS. The calibration curve was fit using weighted (1/x^2) linear regression analysis of the 25–106/IS peak area ratio vs. the 25–106 concentration from 1.0–80.0 ng/ml (ng/g for tissue) for the low curve and 80.0–10,000 ng/ml (ng/g for tissue) for the high curve. The concentrations of incurred and quality control samples were calculated with the same regression analysis, and the results were reported in ng/mL (plasma) or ng/g (tissue) of 25–106.
To assess the pharmacokinetic and pharmacodynamic parameters of 25–106 in vivo, we utilized the LC-MS/MS detection method established above (see Figure 5). The mice were administered IV injections of 25–106 doses of 10, 50, 100, or 200 mg/kg. The animals were euthanized, and organs were harvested at 1, 2, 6, and 24 h post injection. Within the same experiment, tissues were used for biochemical analysis of 25–106 effects on Cdk5 activity (see Figures 3A, B).

[1] = male, C57BL/6, mouse, iv, brain, 10 mg/kg I.V.
[2] = male, C57BL/6, mouse, iv, brain, 50 mg/kg I.V.
[3] = male, C57BL/6, mouse, iv, brain, 100 mg/kg I.V.
[4] = male, C57BL/6, mouse, iv, brain, 200 mg/kg I.V.
[5] = male, C57BL/6, mouse, iv, kidney, 50 mg/kg I.V.
[6] = male, C57BL/6, mouse, iv, kidney, 100 mg/kg I.V.
[7] = male, C57BL/6, mouse, iv, kidney, 200 mg/kg I.V.
[8] = male, C57BL/6, mouse, iv, plasma, 10 mg/kg I.V.
[9] = male, C57BL/6, mouse, iv, plasma, 50 mg/kg I.V.
[10] = male, C57BL/6, mouse, iv, plasma, 100 mg/kg I.V.
[11] = male, C57BL/6, mouse, iv, plasma, 200 mg/kg I.V.

COc1cc(CC(=O)Nc2cc(C3CCC3)[nH]n2)cc(OC)c1OC [25–106, N-(5-cyclobutyl-1H-pyrazol-3-yl)-2-(3,4,5-trimethoxyphenyl)acetamide]
detectability in the brain and plasma (24 h after injection, I.V.): remaining detectable
demethylated metabolites detected (LC-MS/MS, mice): No demethylated metabolite structures
V (brain, 10 mg/kg I.V.): 77.39 ± 25.63 L
V (brain, 50 mg/kg I.V.): 151.24 ± 58.36 L
CL (brain, 50 mg/kg I.V., 50 mg/kg): 16.57 ± 4.19 L/h
V (brain, 100 mg/kg I.V.): 126.99 ± 46.68 L
CL (brain, 100 mg/kg I.V., 100 mg/kg): 17.75 ± 6.77 L/h
V (brain, 200 mg/kg I.V.): 76.07 ± 73.66 L
Clast (kidney, 10 mg/kg I.V.): 163 ± 41.67 ng/mL
Clast (kidney, 50 mg/kg I.V.): 109.33 ± 42.90 ng/mL
V (kidney, 50 mg/kg I.V.): 78.88 ± 16.88 L
Clast (kidney, 100 mg/kg I.V.): 119.88 ± 51.83 ng/mL
V (kidney, 100 mg/kg I.V.): 172.86 ± 89.05 L
Clast (kidney, 200 mg/kg I.V.): 146.45 ± 87.11 ng/mL
V (kidney, 200 mg/kg I.V.): 163.98 ± 55.79 L
Clast (liver, 10 mg/kg I.V.): 85.18 ± 32.60 ng/mL
Clast (liver, 50 mg/kg I.V.): 252.73 ± 200.06 ng/mL
Clast (liver, 100 mg/kg I.V.): 150.9 ± 103.92 ng/mL
Clast (liver, 200 mg/kg I.V.): 310.9 ± 247.48 ng/mL
clearance (male, C57BL/6, mouse, brain, iv, 10 mg/kg, 10 mg/kg I.V.): 66.3 mL/min
Cmax (male, C57BL/6, mouse, brain, iv, 10 mg/kg, brain, 10 mg/kg I.V., read-out: Cmax): 101 ± 23.6 ng/g
clearance (male, C57BL/6, mouse, brain, iv, 50 mg/kg, 50 mg/kg I.V.): 275 mL/min
Cmax (male, C57BL/6, mouse, brain, iv, 50 mg/kg, brain, 50 mg/kg I.V., read-out: Cmax): 118 ± 76.7 ng/g
clearance (male, C57BL/6, mouse, brain, iv, 100 mg/kg, 100 mg/kg I.V.): 295 mL/min
Cmax (male, C57BL/6, mouse, brain, iv, 100 mg/kg, brain, 100 mg/kg I.V., read-out: Cmax): 377 ± 289 ng/g
clearance (male, C57BL/6, mouse, brain, iv, 200 mg/kg, 200 mg/kg I.V.): 188 mL/min
Cmax (male, C57BL/6, mouse, brain, iv, 200 mg/kg, brain, 200 mg/kg I.V., read-out: Cmax): 669 ± 316 ng/g
half-life [1]: 17.2 ± 10.4 h
AUC(0-t) [1]: 80 ± 20 ng·h/mL
concentration at 24 h [1]: 2.27 ± 1.44 ng/mL
k el [1]: 1.67e-05 s⁻¹
half-life [2]: 6.23 ± 1.12 h
AUC(0-t) [2]: 90 ± 30 ng·h/mL
concentration at 24 h [2]: 2.73 ± 1.75 ng/mL
k el [2]: 3.06e-05 s⁻¹
half-life [3]: 5.03 ± 0.69 h
AUC(0-t) [3]: 180 ± 70 ng·h/mL
concentration at 24 h [3]: 2.88 ± 1.16 ng/mL
k el [3]: 3.89e-05 s⁻¹
half-life [4]: 4.39 ± 1.19 h
AUC(0-t) [4]: 960 ± 860 ng·h/mL
concentration at 24 h [4]: 14 ± 14.5 ng/mL
k el [4]: 4.72e-05 s⁻¹
AUC(0-t) (male, C57BL/6, mouse, iv, kidney, 10 mg/kg I.V.): 6300 ± 1690 ng·h/mL
half-life [5]: 10.2 ± 2.99 h
AUC(0-t) [5]: 7640 ± 1280 ng·h/mL
k el [5]: 1.94e-05 s⁻¹
half-life [6]: 13 ± 4.56 h
AUC(0-t) [6]: 9420 ± 3060 ng·h/mL
k el [6]: 1.67e-05 s⁻¹
half-life [7]: 9.65 ± 5.34 h
AUC(0-t) [7]: 14400 ± 4630 ng·h/mL
k el [7]: 2.5e-05 s⁻¹
AUC(0-t) (male, C57BL/6, mouse, iv, liver, 10 mg/kg I.V.): 3080 ± 1010 ng·h/mL
AUC(0-t) (male, C57BL/6, mouse, iv, liver, 50 mg/kg I.V.): 2760 ± 980 ng·h/mL
AUC(0-t) (male, C57BL/6, mouse, iv, liver, 100 mg/kg I.V.): 3320 ± 1280 ng·h/mL
AUC(0-t) (male, C57BL/6, mouse, iv, liver, 200 mg/kg I.V.): 5440 ± 1950 ng·h/mL
half-life [8]: 6.5 ± 2.36 h
AUC(0-t) [8]: 5710 ± 2260 ng·h/mL
concentration at 24 h [8]: 16.3 ± 7 ng/mL
k el [8]: 3.06e-05 s⁻¹
half-life [9]: 7.48 ± 0.41 h
AUC(0-t) [9]: 6930 ± 930 ng·h/mL
concentration at 24 h [9]: 69.7 ± 16.2 ng/mL
k el [9]: 2.5e-05 s⁻¹
half-life [10]: 8.37 ± 1.77 h
AUC(0-t) [10]: 8380 ± 780 ng·h/mL
concentration at 24 h [10]: 79.2 ± 16 ng/mL
k el [10]: 2.5e-05 s⁻¹
half-life [11]: 11 ± 6.38 h
AUC(0-t) [11]: 12000 ± 1740 ng·h/mL
concentration at 24 h [11]: 149 ± 94.1 ng/mL
k el [11]: 2.22e-05 s⁻¹
Cmax (male, C57BL/6, mouse, kidney, iv, 10 mg/kg, kidney, 10 mg/kg I.V., read-out: Cmax): 2950 ng/g
clearance (male, C57BL/6, mouse, kidney, iv, 50 mg/kg, 50 mg/kg I.V.): 92.5 mL/min
Cmax (male, C57BL/6, mouse, kidney, iv, 50 mg/kg, kidney, 50 mg/kg I.V., read-out: Cmax): 1190 ng/g
clearance (male, C57BL/6, mouse, kidney, iv, 100 mg/kg, 100 mg/kg I.V.): 154 mL/min
Cmax (male, C57BL/6, mouse, kidney, iv, 100 mg/kg, kidney, 100 mg/kg I.V., read-out: Cmax): 2580 ng/g
clearance (male, C57BL/6, mouse, kidney, iv, 200 mg/kg, 200 mg/kg I.V.): 227 mL/min
Cmax (male, C57BL/6, mouse, kidney, iv, 200 mg/kg, kidney, 200 mg/kg I.V., read-out: Cmax): 4660 ng/g
Cmax (male, C57BL/6, mouse, liver, iv, 10 mg/kg, liver, 10 mg/kg I.V., read-out: Cmax): 1760 ± 526 ng/g
Cmax (male, C57BL/6, mouse, liver, iv, 50 mg/kg, liver, 50 mg/kg I.V., read-out: Cmax): 513 ± 22 ng/g
Cmax (male, C57BL/6, mouse, liver, iv, 100 mg/kg, liver, 100 mg/kg I.V., read-out: Cmax): 868 ± 378 ng/g
Cmax (male, C57BL/6, mouse, liver, iv, 200 mg/kg, liver, 200 mg/kg I.V., read-out: Cmax): 2810 ng/g
clearance (male, C57BL/6, mouse, plasma, iv, 10 mg/kg, 10 mg/kg I.V.): 1 mL/min
Cmax (male, C57BL/6, mouse, plasma, iv, 10 mg/kg, plasma, 10 mg/kg I.V., read-out: Cmax): 2570 ng/mL
clearance (male, C57BL/6, mouse, plasma, iv, 50 mg/kg, 50 mg/kg I.V.): 3.33 mL/min
Cmax (male, C57BL/6, mouse, plasma, iv, 50 mg/kg, plasma, 50 mg/kg I.V., read-out: Cmax): 1380 ng/mL
clearance (male, C57BL/6, mouse, plasma, iv, 100 mg/kg, 100 mg/kg I.V.): 5.33 mL/min
Cmax (male, C57BL/6, mouse, plasma, iv, 100 mg/kg, plasma, 100 mg/kg I.V., read-out: Cmax): 2580 ng/mL
clearance (male, C57BL/6, mouse, plasma, iv, 200 mg/kg, 200 mg/kg I.V.): 7.17 mL/min
Cmax (male, C57BL/6, mouse, plasma, iv, 200 mg/kg, plasma, 200 mg/kg I.V., read-out: Cmax): 2320 ng/mL
V (plasma, 10 mg/kg I.V.): 0.49 ± 0.08 L
V (plasma, 50 mg/kg I.V.): 2.14 ± 0.34 L
V (plasma, 100 mg/kg I.V.): 3.85 ± 0.55 L
Cmax (plasma, 100 mg/kg I.V., 100 mg/kg): 2,577.50 ± 1,004.73 Ng/ml
V (plasma, 200 mg/kg I.V.): 6.12 ± 2.08 L
Cmax (plasma, 200 mg/kg I.V., 200 mg/kg): 2,322.50 ± 972.71 Ng/ml
